# Test results taken from patent publication US20250262331A1, “COMPOSITION AND METHODS FOR IMPROVING SIGNS AND SYMPTOMS OF OCULAR DISORDERS” (Azura Ophthalmics Ltd., priority 2022, published 2025).
# System: sebaceous cells
# Assay: Preclinical sebum production in sebaceous cells
# Assay type: cell-based
# Details: preclinical data; lower effect observed at higher concentrations
compound,measurement,value
S=[Se]=S [selenium disulfide],effect on sebum production in sebaceous cells,non-linear dose response
